Source: patent US12114658B2, “Compounds having a nitrogen-containing unsaturated six-membered ring and agricultural and horticultural fungicides containing the same as active ingredients” (MITSUI CHEMICALS CROP & LIFE SOLUTIONS, INC., priority 2018, dated 2024)

Assays:
Alternaia brassicicola = experiment: Test Example C: Alternaria sooty spot on cabbage; settings: Brassica oleracea, read-out: control value
Method: (§1) Disease development in Test Examples described below was evaluated in increments of 0.05 by setting 0 as no incidence of disease and 3 as disease development in a plant of untreated group. Further, control values were calculated using the following equation based on disease development.
(§2) <Control Value> Control value=100{1−(n/3)} • n=Disease development of each treated group
Seeds of a test plant (cabbage variety: Shikidori) were planted and cultivated until the cotyledons extended. In the test, the inventive compounds were dissolved into a dimethyl sulfoxide-methanol mixture solution (volume ratio: 9/1), and the resultant solutions were diluted with well water to a concentration of 250 ppm. The thus-obtained dilutions were sprayed to the test plant (2.5 ml/pot). After the dilutions dried, a conidial suspension (4-8×10^5 conidia/ml) of Alternaia brassicicola was inoculated to the plant by spraying. After the inoculation, the plant was kept in a mist chamber at room temperature of 20 to 23° C. for about 48 hours to promote the onset of disease. The disease development was investigated 2 to 3 days after the inoculation, and the effectiveness of the dilutions was evaluated.

Puccinia recondita = experiment: Test Example E: brown rust on wheat; type: in vivo; settings: 250 ppm spray (2.5 ml/pot) before inoculation, wheat variety Norin 61, investigated 7 to 10 days after inoculation
[1] = test system: Colletotrichum orbiculare; experiment: Test Example H: anthracnose on cucumber; settings: in Cucumis sativus, read-out: control value
Method: as §1, §2
Seeds of a test plant (cucumber variety: Sagami Hanjiro) were planted and cultivated until the first leaf appeared. In the test, the inventive compounds were dissolved into a dimethyl sulfoxide-methanol mixture solution (volume ratio: 9/1), and the resultant solutions were diluted with well water to a concentration of 250 ppm. The thus-obtained dilutions were sprayed to the test plant (2.5 ml/pot). After the dilutions dried, a conidial suspension (2-4×10^5 conidia/ml) of Colletotrichum orbiculare was inoculated to the plant by spraying. After the inoculation, the plant was kept in a mist chamber at room temperature of 20 to 23° C. for about 24 hours to promote the onset of disease. The disease development was investigated 6 to 10 days after the inoculation, and the effectiveness of the dilutions was evaluated.

Magnaporthe grisea = experiment: whole plant or invertebrate; type: in vivo; settings: Pyricularia oryzae, in Oryza sativa, read-out: control value

Measured: pest or weed control at 250 ppm

COn1c(-c2ccc(F)cc2)c(-n2cc(C)cn2)ccc1=O [PY-374, 6-(4-fluorophenyl)-1-methoxy-5-(4-methyl-1H-pyrazol-1-yl)pyridin-2(1H)-one]
> 50%: Alternaia brassicicola

CCn1c(-c2ccc(F)cc2)c(-n2nccc2Cl)cc(Cl)c1=O [PY-104, 3-chloro-5-(5-chloro-1H-pyrazol-1-yl)-1-ethyl-6-(4-fluorophenyl)pyridine-2(1H)-one]
> 50%: all assays above

CCn1c(-c2ccc(OCC(F)F)cc2)c(-n2ncc(C)c2Cl)cc(Cl)c1=O [PY-046, 3-chloro-5-(5-chloro-4-methyl-1H-pyrazol-1-yl)-6-(4-(2,2-difluoroethoxy)phenyl)-1-eth ylpyridine-2(1H)-one]
> 50%: Puccinia recondita | Alternaia brassicicola | Magnaporthe grisea

CCn1c(-c2ccccc2)c(-n2cnc(Cl)c2Cl)ccc1=O [IM-001, 5-(4,5-dichloro-1H-imidazol-1-yl)-1-ethyl-6-phenylpyridine-2(1H)-one]
> 50%: all assays above

COn1c(-c2ccc(F)cc2)c(-n2cc(C)cn2)cc(Br)c1=O [PY-381, 3-bromo-6-(4-fluorophenyl)-1-methoxy-5-(4-methyl-1H-pyrazol-1-yl)pyridin-2 (1H)-one]
> 50%: Alternaia brassicicola | [1]

COn1c(-c2ccc(F)cc2)c(-n2ncc(C)c2Cl)cc(Br)c1=O [PY-382, 3-bromo-5-(5-chloro-4-methyl-1H-pyrazol-1-yl)-6-(4-fluorophenyl)-1-methoxypyridin-2(1H)-one]
> 50%: all assays above

CCn1c(-c2ccc(OC)cc2)c(-n2ncc(C)c2Cl)cc(Cl)c1=O [PY-018, 3-chloro-5-(5-chloro-4-methyl-1H-pyrazol-1-yl)-1-ethyl-6-(4-methoxyphenyl)pyridine-2(1H)-one]
> 50%: all assays above

COc1ccc(-c2c(-n3ncc(C)c3Cl)cc(Cl)c(=O)n2CC(F)F)cc1 [PY-032, 3-chloro-5-(5-chloro-4-methyl-1H-pyrazol-1-yl)-1-(2,2-difluoroethyl)-6-(4-methoxyphenyl)pyridine-2(1H)-one]
> 50%: all assays above

CCn1c(-c2ccc(F)cc2)c(-n2nccc2C(F)(F)F)cc(Cl)c1=O [PY-090, 3-chloro-1-ethyl-6-(4-fluorophenyl)-5-(5-(trifluoromethyl)-1H-pyrazol-1-yl)pyridine-2(1H)-one]
> 50%: all assays above

CCn1c(-c2ccc(O)cc2)c(-n2ncc(C)c2Cl)cc(Cl)c1=O [PY-041, 3-chloro-5-(5-chloro-4-methyl-1H-pyrazol-1-yl)-1-ethyl-6-(4-hydroxyphenyl)pyridine-2(1H)-one]
> 50%: Puccinia recondita | Alternaia brassicicola | Magnaporthe grisea

CCn1c(-c2ccccc2)c(-n2cnc(Cl)c2Cl)cc(Cl)c1=O [IM-003, 3-chloro-5-(4,5-dichloro-1H-imidazol-1-yl)-1-ethyl-6-phenylpyridine-2(1H)-one]
> 50%: all assays above

CCn1c(-c2ccc(OC)cc2)c(-n2cc(C)cn2)ccc1=O [PY-036, 1-ethyl-6-(4-methoxyphenyl)-5-(4-methyl-1H-pyrazol-1-yl)pyridine-2(1H)-one]
> 50%: Alternaia brassicicola | [1]

COc1ccc(-c2c(-n3cc(C)cn3)ccc(=O)n2CC(F)F)cc1 [PY-031, 1-(2,2-difluoroethyl)-6-(4-methoxyphenyl)-5-(4-methyl-1H-pyrazol-1-yl)pyridine-2(1H)-one]
> 50%: Alternaia brassicicola
